Source: the supplement of paper PMC4862054

Key:
Assay in all cases: normalised viability (% of control), CellTiter-Blue; higher = more viable cells (about 100 = DMSO control)
Conditions in all cases: incubation time: 72 h
[1] = test system: CAL-148
Method in brief: (§1)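 Each value is normalised viability at a single listed concentration of the series. Breast cancer cell lines in 384-well plates were incubated 72 h with compound and read by CellTiter-Blue fluorescence at 560/590 nm, with vehicle set to 100 and a positive kill control to 0 on every plate.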

[2] = test system: CAL-51
Method in brief: as §1

[3] = test system: SK-BR-3
Method in brief: as §1

[4] = test system: CAL-85-1
Method in brief: as §1

[5] = test system: MDA-MB-436
Method in brief: as §1

[6] = test system: CAL-120
Method in brief: as §1

[7] = test system: BT-549
Method in brief: as §1

[8] = test system: MDA-MB-453
Method in brief: as §1

[9] = test system: HDQ-P1
Method in brief: as §1

[10] = test system: MFM-223
Method in brief: as §1

[11] = test system: HCC1599
Method in brief: as §1

[12] = test system: MDA-MB-468
Method in brief: as §1

[13] = test system: MDA-MB-231
Method in brief: as §1

[14] = test system: Hs578T
Method in brief: as §1

[15] = test system: BT-474
Method in brief: as §1

[16] = test system: HCC1937
Method in brief: as §1

[17] = test system: DU-4475
Method in brief: as §1

[18] = test system: CAL-148; remark: listed apart in the source
Method in brief: as §1

[19] = test system: CAL-51; remark: listed apart in the source
Method in brief: as §1

[20] = test system: SK-BR-3; remark: listed apart in the source
Method in brief: as §1

[21] = test system: CAL-85-1; remark: listed apart in the source
Method in brief: as §1

[22] = test system: MDA-MB-453; remark: listed apart in the source
Method in brief: as §1

[23] = test system: MFM-223; remark: listed apart in the source
Method in brief: as §1

[24] = test system: HCC1599; remark: listed apart in the source
Method in brief: as §1

[25] = test system: MDA-MB-468; remark: listed apart in the source
Method in brief: as §1

[26] = test system: MDA-MB-231; remark: listed apart in the source
Method in brief: as §1

[27] = test system: Hs578T; remark: listed apart in the source
Method in brief: as §1

[28] = test system: BT-474; remark: listed apart in the source
Method in brief: as §1

[29] = test system: DU-4475; remark: listed apart in the source
Method in brief: as §1

CCC1(c2ccc(N)cc2)CCC(=O)NC1=O (configuration not stated) [Aminoglutethimide]
Conditions | normalised viability [%]
[1], 10 nM | 99.1
[2], 10 nM | 93.5
[3], 100 nM | 105
[4], 10 nM | 101
[5], 100 nM | 90.9
[6], 100 nM | 121
[7], 100 nM | 73.2
[8], 10 nM | 86.3
[9], 10 nM | 93.5
[10], 100 nM | 97
[11], 100 nM | 104
[12], 100 nM | 102
[13], 100 nM | 93.7
[14], 100 nM | 80.6
[15], 100 nM | 112
[16], 100 nM | 91.3
[17], 10 nM | 104
[18], 3 nM | 108
[18], 30 nM | 105
[18], 100 nM | 106
[19], 3 nM | 87.2
[19], 30 nM | 92.6
[19], 100 nM | 92.8
[20], 10 nM | 99.1
[20], 1000 nM | 100
[20], 10000 nM | 109
[21], 3 nM | 104
[21], 30 nM | 89.6
[21], 100 nM | 103
[22], 3 nM | 94.9
[22], 30 nM | 93
[22], 100 nM | 89.2
[23], 10 nM | 97
[23], 1000 nM | 102
[23], 10000 nM | 97.5
[24], 10 nM | 90.8
[24], 1000 nM | 92.7
[24], 10000 nM | 95.3
[25], 10 nM | 97.3
[25], 1000 nM | 103
[25], 10000 nM | 110
[26], 10 nM | 86.9
[26], 1000 nM | 90.2
[26], 10000 nM | 106
[27], 10 nM | 95.8
[27], 1000 nM | 113
[27], 10000 nM | 89.8
[28], 10 nM | 107
[28], 1000 nM | 104
[28], 10000 nM | 105
[29], 3 nM | 107
[29], 30 nM | 86.9
[29], 100 nM | 85.2

NCC(=O)CCC(=O)O [Aminolevulinic acid]
Conditions | normalised viability [%]
[1], 10 nM | 104
[2], 10 nM | 101
[3], 100 nM | 99
[4], 10 nM | 98.4
[5], 100 nM | 104
[6], 100 nM | 99.7
[7], 100 nM | 104
[8], 10 nM | 99.1
[9], 10 nM | 100
[10], 100 nM | 91.7
[11], 100 nM | 87.9
[12], 100 nM | 103
[13], 100 nM | 110
[14], 100 nM | 101
[15], 100 nM | 114
[16], 100 nM | 91
[17], 10 nM | 104
[18], 3 nM | 93.8
[18], 30 nM | 101
[18], 100 nM | 98.8
[19], 3 nM | 105
[19], 30 nM | 100
[19], 100 nM | 92.9
[20], 10 nM | 96.3
[20], 1000 nM | 108
[20], 10000 nM | 101
[21], 3 nM | 99.9
[21], 30 nM | 87.1
[21], 100 nM | 98.8
[22], 3 nM | 110
[22], 30 nM | 93.5
[22], 100 nM | 90.2
[23], 10 nM | 92.2
[23], 1000 nM | 91.3
[23], 10000 nM | 87.3
[24], 10 nM | 84.3
[24], 1000 nM | 86.5
[24], 10000 nM | 90.8
[25], 10 nM | 101
[25], 1000 nM | 111
[25], 10000 nM | 102
[26], 10 nM | 107
[26], 1000 nM | 93.2
[26], 10000 nM | 111
[27], 10 nM | 108
[27], 1000 nM | 104
[27], 10000 nM | 96.3
[28], 10 nM | 115
[28], 1000 nM | 119
[28], 10000 nM | 131
[29], 3 nM | 104
[29], 30 nM | 77.5
[29], 100 nM | 110

CCN(CCCOc1ccc2c(Nc3cc(CC(=O)Nc4cccc(F)c4)[nH]n3)ncnc2c1)CCOP(=O)(O)O [Barasertib]
Conditions | normalised viability [%]
[1], 1 nM | 102
[2], 1 nM | 96
[3], 10 nM | 68.3
[4], 1 nM | 95.5
[5], 10 nM | 113
[6], 10 nM | 88.1
[7], 10 nM | 96.8
[8], 1 nM | 108
[9], 1 nM | 111
[10], 10 nM | 93.4
[11], 10 nM | 101
[12], 10 nM | 99.4
[13], 10 nM | 102
[14], 10 nM | 87.9
[15], 10 nM | 90.2
[16], 10 nM | 101
[17], 1 nM | 102
[18], 0.3 nM | 98.4
[18], 3 nM | 105
[18], 10 nM | 39.7
[19], 0.3 nM | 106
[19], 3 nM | 103
[19], 10 nM | 83.6
[20], 1 nM | 107
[20], 100 nM | 82.7
[20], 1000 nM | 91.9
[21], 0.3 nM | 102
[21], 3 nM | 89.8
[21], 10 nM | 93.2
[22], 0.3 nM | 104
[22], 3 nM | 92.8
[22], 10 nM | 65.6
[23], 1 nM | 103
[23], 100 nM | 95.7
[23], 1000 nM | 85.8
[24], 1 nM | 79.4
[24], 100 nM | 81.6
[24], 1000 nM | 94.2
[25], 1 nM | 115
[25], 100 nM | 34.4
[25], 1000 nM | 26.5
[26], 1 nM | 110
[26], 100 nM | 75.3
[26], 1000 nM | 81.1
[27], 1 nM | 106
[27], 100 nM | 62.6
[27], 1000 nM | 70.7
[28], 1 nM | 108
[28], 100 nM | 95.1
[28], 1000 nM | 92.1
[29], 0.3 nM | 112
[29], 3 nM | 105
[29], 10 nM | 91.6

Cn1c(CCCC(=O)O)nc2cc(N(CCCl)CCCl)ccc21 [Bendamustine]
Conditions | normalised viability [%]
[1], 10 nM | 108
[2], 10 nM | 106
[3], 100 nM | 67.7
[4], 10 nM | 102
[5], 100 nM | 83.4
[6], 100 nM | 88.2
[7], 100 nM | 109
[8], 10 nM | 112
[9], 10 nM | 112
[10], 100 nM | 102
[11], 100 nM | 105
[12], 100 nM | 96.3
[13], 100 nM | 93.2
[14], 100 nM | 83.7
[15], 100 nM | 108
[16], 100 nM | 97.4
[17], 10 nM | 120
[18], 3 nM | 99.8
[18], 30 nM | 112
[18], 100 nM | 106
[19], 3 nM | 111
[19], 30 nM | 105
[19], 100 nM | 111
[20], 10 nM | 108
[20], 1000 nM | 109
[20], 10000 nM | 85
[21], 3 nM | 91.2
[21], 30 nM | 94.8
[21], 100 nM | 100
[22], 3 nM | 125
[22], 30 nM | 108
[22], 100 nM | 106
[23], 10 nM | 96.2
[23], 1000 nM | 87.4
[23], 10000 nM | 93.5
[24], 10 nM | 115
[24], 1000 nM | 105
[24], 10000 nM | 114
[25], 10 nM | 107
[25], 1000 nM | 95
[25], 10000 nM | 82.3
[26], 10 nM | 102
[26], 1000 nM | 96.1
[26], 10000 nM | 91
[27], 10 nM | 110
[27], 1000 nM | 127
[27], 10000 nM | 97.7
[28], 10 nM | 127
[28], 1000 nM | 120
[28], 10000 nM | 105
[29], 3 nM | 90
[29], 30 nM | 102
[29], 100 nM | 101
